Experiments:
dipeptidyl peptidase IV = dipeptidyl peptidase IV (Sus scrofa, UniProt P22411); experiment: DPP IV degradation, % intact peptide by HPLC; format: in vitro ADME, porcine; details: pig, purified porcine dipeptidyl peptidase IV (DPP IV), 37° C., pH 7.8
Protocol: (§1) HPLC peak area data were used to calculate the percentage intact peptide remaining at the various time points during the incubation.

[1] = molecular target: purified porcine dipeptidyl peptidase IV (Sus scrofa, UniProt P22411); experiment: DPP IV degradation, % intact peptide by HPLC; format: in vitro ADME; details: 37° C., pH 7.8
Protocol: as §1

human GIP receptor = molecular target: T1, human GIP receptor (Homo sapiens, UniProt P48546); experiment: Intracellular cAMP production in GIP-receptor transfected CHL cells; format: cell-based
T1 construct: expressed in transfected cells; host or cells: Chinese hamster lung (CHL) fibroblasts
T1 sequence (P48546 22-466): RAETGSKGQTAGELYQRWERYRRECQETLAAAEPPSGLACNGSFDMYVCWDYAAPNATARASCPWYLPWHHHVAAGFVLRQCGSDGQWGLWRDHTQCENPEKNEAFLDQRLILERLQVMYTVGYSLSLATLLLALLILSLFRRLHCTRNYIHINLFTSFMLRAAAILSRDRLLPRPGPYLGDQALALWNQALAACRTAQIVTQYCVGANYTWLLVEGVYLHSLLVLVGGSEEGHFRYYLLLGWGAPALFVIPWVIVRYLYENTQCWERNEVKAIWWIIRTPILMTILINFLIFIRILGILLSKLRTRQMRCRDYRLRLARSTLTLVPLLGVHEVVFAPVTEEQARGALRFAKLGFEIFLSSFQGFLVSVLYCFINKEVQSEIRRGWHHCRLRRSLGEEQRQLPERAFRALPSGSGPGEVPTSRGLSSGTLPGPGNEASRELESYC
Protocol: The cells were then incubated at 37° C. for 6 hours in 1 ml DMEM, supplemented with 0.5% (w/v) BSA and subsequently washed twice with HBS buffer (Hanks Buffered Saline solution). […] The medium was subsequently removed and the cells lysed with 1 ml of 5% trichloroacetic acid containing 0.1 mM unlabelled cAMP and 0.1 mM unlabelled ATP. The intracellular tritiated cAMP was then separated on Dowex and alumina exchange resins (Life Science Research, Larne, UK).

D3 mouse ES cell line = experiment: Differentiation of D3 mouse ES cells to beta cell phenotype, insulin release and insulin/C-peptide content; format: cell-based
Protocol: The D3 mouse ES cell line was routinely cultured on tissue culture plastic coated with 0.1% (w/v) gelatine in DMEM (25 mM glucose) containing 15% foetal bovine serum (FBS), 2 mM glutamine, 50 U/ml penicillin/streptomycin, non-essential amino acids, 0.1 mM β-mercaptoethanol, and 1000 U/ml LIF (leukaemia inhibitory factor). Medium was changed daily and cultures were passaged every 2 days onto fresh geletin-coated plates at a split ratio of 1:5. The cells were passaged by washing the cultures with phosphate-buffer saline and then detached from the plate with a trypsin (2.5 g/L)-EDTA (1 mM) solution. Prior to seeding into new flasks the ES cells were dissociated to single cells suspensions by repeated pipetting.
For differentiation of D3 mouse ES cells, an established protocol was used (Lumelsky, N. et al., 2001, Science 292(5520):1389-94). Briefly, LIF was removed from the culture medium, EBs (embryonic bodies) were then formed by growing the cells as non-adherent clusters. For the selection of nestin positive precursor cells, medium was changed to serum free ITSFn medium and for expanding these progenitors, cells were incubated in N2 serum free medium for 7 days (stage 4) and then differentiated into insulin-containing cell clusters by incubation in N2 serum free medium without bFGF, supplemented with 10 mM nicotinamide for 7 days (stage 5) (control protocol). […] The differentiated cells were harvested at the end of stage 4 and 5 and samples were seeded onto 24 well plates for insulin and C-peptide studies. Insulin release from differentiated cells from stages 4 and 5 were determined using cell monolayers. The cells were harvested with the aid of trypsin/EDTA (Gibco), seeded into 24-multiwell plates (Nunc, Rosklide, Denmark) at a density of 0.1×10^6 cells per well, and allowed to attach overnight.
Prior to the acute test, cells were washed three times and preincubated for 40 minutes at 37° C. in a 1.0 ml Krebs Ringer bicarbonate buffer (115 mM NaCl, 4.7 mM KCl, 1.28 mM CaCl2, 1.2 mM KH2PO4, 1.2 mM MgSO4, 10 mM NaHCO3, 5 g/l bovine serum albumin, pH 7.4) supplemented with 1.1 mM glucose. Test incubations were performed for 20 minutes at 37° C. using the same buffer supplemented with 5.6 mM glucose in the absence (control) and presence of various test agents as indicated in the Figures. After incubation, aliquots of buffer were removed and stored at −20° C. for insulin radioimmunoassay. For assessment of cellular hormone contents, the buffer was completely removed and […] of acid-ethanol solution (1.5% (v/v) HCl, 75% (v/v) ethanol, 23.5% (v/v) H2O) was added. The cells were disrupted with the aid of a pasture pipette and incubated overnight at 4° C. prior to centrifugation (900 rpm) and stored at −20° C.

ob/ob mice = experiment: Acute glucose lowering and insulin release, peptide given i.p. with glucose to 18 hour fasted ob/ob mice
Protocol: Obese diabetic (ob/ob) mice derived from the colony maintained at Aston University, UK (23) were used at 12-16 weeks of age. […] Drinking water and standard rodent maintenance diet (Trouw Nutrition, Cheshire, UK) were freely available.
Food intake and body weight were recorded daily from 5 days before commencement of the treatment regimes. Plasma glucose and insulin concentrations (10:00 h) were monitored at 2-4 day intervals. […] All acute tests were commenced at 10:00 h. […] Serum samples were taken for determination of glucagon concentrations. All other blood samples were collected from the cut tip of the tail vein of conscious mice into chilled fluoride/heparin coated glucose microcentrifuge tubes (Sarstedt, Nümbrecht, Germany) at the times indicated in the Figures. Blood samples were immediately centrifuged using a Beckman microcentrifuge (Beckman Instruments, Galway, Ireland) for 30 seconds at 13,000×g. The resulting plasma was then aliquoted into fresh tubes and stored at −20° C. prior to glucose and insulin determinations.

[2] = culture media supplemented with 1×10^-6 M peptide, Stage 4
[3] = culture media supplemented with 1×10^-6 M peptide, Stage 5

Sequence of dipeptidyl peptidase IV (P22411 whole entry): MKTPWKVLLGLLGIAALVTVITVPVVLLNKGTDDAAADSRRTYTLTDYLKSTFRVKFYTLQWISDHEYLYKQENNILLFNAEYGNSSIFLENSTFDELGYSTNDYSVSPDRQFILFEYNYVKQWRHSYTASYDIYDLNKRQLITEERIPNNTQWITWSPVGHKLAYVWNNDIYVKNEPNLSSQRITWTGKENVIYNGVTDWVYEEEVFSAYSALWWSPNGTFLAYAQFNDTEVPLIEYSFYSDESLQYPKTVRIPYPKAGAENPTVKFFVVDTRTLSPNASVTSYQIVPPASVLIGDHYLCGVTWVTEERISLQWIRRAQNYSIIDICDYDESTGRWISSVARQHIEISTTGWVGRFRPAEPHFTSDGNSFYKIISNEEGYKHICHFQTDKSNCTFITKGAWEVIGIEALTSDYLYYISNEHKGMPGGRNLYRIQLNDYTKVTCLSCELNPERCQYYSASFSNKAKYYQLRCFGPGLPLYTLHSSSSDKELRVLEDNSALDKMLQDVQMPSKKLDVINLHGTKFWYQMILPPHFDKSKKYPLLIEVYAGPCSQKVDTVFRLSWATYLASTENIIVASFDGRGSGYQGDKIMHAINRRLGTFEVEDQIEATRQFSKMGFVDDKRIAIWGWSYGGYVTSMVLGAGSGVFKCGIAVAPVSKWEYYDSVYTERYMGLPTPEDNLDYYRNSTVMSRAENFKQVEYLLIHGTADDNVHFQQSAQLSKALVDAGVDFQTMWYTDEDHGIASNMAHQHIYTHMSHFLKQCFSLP
Sequence of purified porcine dipeptidyl peptidase IV (P22411 whole entry): as above

**Q.** What does the source list for CCCCCCCCCCCCCCCC(=O)NCCCC[C@H](NC(=O)[C@H](CC(=O)O)NC(=O)[C@H](CCSC)NC(=O)[C@H](C)NC(=O)[C@@H](NC(=O)[C@H](CO)NC(=O)[C@H](Cc1ccc(O)cc1)NC(=O)[C@H](CC(=O)O)NC(=O)[C@H](CO)NC(=O)[C@@H](NC(=O)[C@H](Cc1ccccc1)NC(=O)[C@@H](NC(=O)CNC(=O)[C@H](CCC(=O)O)NC(=O)[C@H](C)NC(=O)[C@@H](N)Cc1ccc(O)cc1)[C@@H](C)O)[C@@H](C)CC)[C@@H](C)CC)C(=O)N[C@H](C(=O)N[C@@H](Cc1c[nH]cn1)C(=O)N[C@@H](CCC(N)=O)C(=O)N[C@@H](CCC(N)=O)C(=O)N[C@@H](CC(=O)O)C(=O)N[C@@H](Cc1ccccc1)C(=O)N[C@H](C(=O)N[C@@H](CC(N)=O)C(=O)N[C@@H](Cc1c[nH]c2ccccc12)C(=O)N[C@@H](CC(C)C)C(=O)N[C@@H](CC(C)C)C(=O)N[C@@H](C)C(=O)N[C@@H](CCC(N)=O)C(=O)N[C@@H](CCCCN)C(=O)NCC(=O)N[C@@H](CCCCN)C(=O)N[C@@H](CCCCN)C(=O)N[C@@H](CC(N)=O)C(=O)N[C@@H](CC(=O)O)C(=O)N[C@@H](Cc1c[nH]c2ccccc12)C(=O)N[C@@H](CCCCN)C(=O)N[C@@H](Cc1c[nH]cn1)C(=O)N[C@@H](CC(N)=O)C(=O)N[C@H](C(=O)N[C@H](C(=O)N[C@@H](CCC(N)=O)C(=O)O)[C@@H](C)O)[C@@H](C)CC)C(C)C)[C@@H](C)CC [GIP(LysPAL^16)]?
**A.** remaining at 2 h, 2 mM (dipeptidyl peptidase IV; 2 h incubation with DPP IV (5 mU), read-out: % Intact peptide remaining after time (h) 2): 100%; remaining at 8 h, 2 mM (dipeptidyl peptidase IV; 8 h incubation with DPP IV (5 mU), read-out: % Intact peptide remaining after time (h) 8): 100%; remaining at 24 h, 2 mM (dipeptidyl peptidase IV; 24 h incubation with DPP IV (5 mU), read-out: % Intact peptide remaining after time (h) 24): 100%; % Intact peptide remaining after time (h) 0 ([1]; 0 h incubation with DPP IV (5 mU)): 100%; % Intact peptide remaining after time (h) 24 ([1]; 24 h incubation with DPP IV (5 mU)): remained fully intact; EC50 (human GIP receptor): 2.9 nM; glucose-induced insulin release of differentiated stage 4 cells, modified versus control protocol (D3 mouse ES cell line; 1×10^-6 M peptide in media, stage 4, 0-22.0 mM glucose): significantly higher; response of differentiated stage 5 cells to glucose (D3 mouse ES cell line; 1×10^-6 M peptide in media, stage 5): appear not respond to glucose; increase in C-peptide content compared to control, stage 4 (D3 mouse ES cell line; 1×10^-6 M peptide, stage 4): 1.5 fold; increase in C-peptide content compared to control, stage 5 (D3 mouse ES cell line; 1×10^-6 M peptide, stage 5): 1.3 fold; C-Peptide content of differentiated D3 cluster cells, Stage 4 (D3 mouse ES cell line; [2]): 124.5 ± 3.13 pmol/mg protein/20 mins; Insulin content of differentiated D3 cluster cells, Stage 4 (D3 mouse ES cell line; [2]): 9154 ± 291.1 pmol/mg protein/20 mins; C-Peptide content of differentiated D3 cluster cells, Stage 5 (D3 mouse ES cell line; [3]): 121.9 ± 3.43 pmol/mg protein/20 mins; Insulin content of differentiated D3 cluster cells, Stage 5 (D3 mouse ES cell line; [3]): 8532 ± 626.5 pmol/mg protein/20 mins; plasma glucose concentrations and AUC (0-60 min) compared to glucose alone (ob/ob mice; 25 nmol/kg i.p. with glucose 18 mmol/kg): significantly reduced; overall enhancement of insulin release over native GIP (ob/ob mice; 25 nmol/kg i.p. with glucose, insulin AUC 0-60 min): 2.4 fold

From patent US20090286722A1 (priority 2005, published 2009)
